Data as given in patent US6548540B2, “Method of treating cancer using dithiocarbamate derivatives” (Charlotte-Mecklenburg Hospital Authority, priority 1998, dated 2003).

Legend:
Format in all cases: cell-based, human
AP-1 = assay: EMSA of treated cells, AP-1 DNA binding; conditions: disulfiram plus copper; 24 hours; data not shown
Description: Nuclear protein was isolated and DNA binding reactions were performed as previously described in detail (See, […], et al., “Dehydroepiandrosterone and analogs inhibit DNA binding of AP-1 and airway smooth muscle proliferation,” J. Pharmacol. Exper. Ther. 285:[…] (1998); T. Kennedy, et al., “Copper-dependent inflammation and nuclear factor-κB activation by particulate air pollution,” Am. J. Respir. Cell Mol. Biol. 19:366-378 (1998)). Monolayers were washed twice in cold DPBS and equilibrated 10 minutes on ice with 0.7 ml cold cytoplasmic extraction buffer, CEB (10 mM Tris, pH 7.9, 60 mM KCl, 1 mM EDTA, 1 mM DTT) with protease inhibitors, PI (1 mM Pefabloc, 50 μg/ml antipain, 1 μg/ml leupeptin, 1 μg/ml pepstatin, 40 μg/ml bestatin, 3 μg/ml E-64 and 100 μg/ml chymostatin). The detergent Nonidet P-40 (NP-40) was added to a final concentration of 0.1% and cells were dislodged with a cell scraper. Nuclei were pelleted by centrifugation and washed with CEB/PI. […]

M1619 cells = assay: Intracellular reactive oxygen species, dichlorofluorescin probe
Description: Potential redox effects of disulfiram were studied in three sets of experiments. The importance of cellular glutathione (GSH) in mediating or modulating thiocarbamate toxicity was studied by measuring levels of intracellular GSH after treatment with disulfiram. […] Also, to assess whether a nonspecific antioxidant effect of disulfiram or PDTC might account for cellular growth inhibition, we studied the effect of the potent lipophilic antioxidant probucol (1.0 to 1,000 μM) on proliferation of malignant cell lines. […] A. Royall, et al., “Evaluation of 2′,7′-dichlorofluorescin and dihydrorhodamine 123 as fluorescent probes for intracellular H2O2 in cultured endothelial cells,” Archiv. Biochem. Biophys. 302:348-355 (1993)). […] Cells were plated in 24 well plastic plates at 50,000 cells per well and grown to confluence. Media was aspirated from wells and replaced with 100 μl medium containing 10 μM DCF-DA, and plates were incubated at 37° C. for 30 minutes. The DCF-DA containing media was aspirated, cells were washed twice with media alone and 100 μl fresh media was added to wells. […] The relative concentration of dichlorofluroescein was measured immediately by monitoring fluorescence at 37° C. using an excitation wavelength of 485 nm and emission wavelength of 535 nm.

cyclin A = assay: Immunoblot for cyclin A in M1619 cells; conditions: 24 hours
Description: Cells were lysed and proteins were isolated and quantitated by immunoassay as previously detailed using 2 μg/ml of primary rabbit polyclonal antibodies against human bcl-2, p53, p21^WAF1/CiP1, cyclin A and cyclin B1, and peroxidase-labeled donkey polyclonal anti-rabbit IgG. Cells were placed on ice, washed twice with cold DPBS, scraped into 0.5 ml boiling buffer (10% [vol/vol] glycerol and 2% [wt/vol] sodium dodecyl sulfate [SDS] in 83 mM Tris, pH 6.8) and sheared by four passages through a pipette. Aliquots were removed for protein determination, using the BCA protein assay (Pierce). After 10% β-mercaptoethanol and 0.05% bromophenol blue were added, lysates were boiled for 5 min and stored at -80° C. until immunoblotting was performed. Proteins in defrosted samples were separated by SDS-polyacrylamide gel electrophoresis on 12% polyacrylamide gels (15 μg protein/lane) and electrotransferred to 0.45 μm Hybond ECL nitrocellulose membranes (Amersham Life Sciences) using the wet transblot method in transfer buffer (0.025 M Tris, 0.192 M glycine, 2.6 mM SDS, and 20%[vol/vol] methanol; pH 8.8) at 100 volts for 1 hour. Blots were blocked overnight at 4° C. with blocking buffer (PBS with 0.1% Tween 20) containing 5% fat-free milk powder (Carnation, Glendale, Calif.). After rinsing 5 times for 5 minutes each in PBS containing 0.1% Tween 20, blots were incubated for 1 hour at room temperature with 2.0 μg/ml of primary antibody. After rinsing again as above, blots were incubated for 1 hr at room temperature with horseradish peroxidase (HRP)-conjugated secondary antibody diluted 1:5,000 in blocking buffer. Immunoblots were rinsed again as above and detected via an enhanced chemiluminescence method (ECL Western blotting detection system, Amersham Life Science, Buckinghamshire, England). Autoradiographic film (X-OMAT AR, Eastman Kodak, Rochester, N.Y.) was exposed to immunoblots for 10, 30, or 60 seconds to obtain satisfactory images. Since disulfiram and copper disrupt transcription factor DNA binding to CRE, their effect on expression of cyclin A was studied. […]

p53 = assay: Immunoblot for p53; conditions: cell lines studied; data not shown
Description: Cells were lysed and proteins were isolated and quantitated by immunoassay as previously detailed using 2 μg/ml of primary rabbit polyclonal antibodies against human bcl-2, p53, p21^WAF1/CiP1, cyclin A and cyclin B1, and peroxidase-labeled donkey polyclonal anti-rabbit IgG. Cells were placed on ice, washed twice with cold DPBS, scraped into 0.5 ml boiling buffer (10% [vol/vol] glycerol and 2% [wt/vol] sodium dodecyl sulfate [SDS] in 83 mM Tris, pH 6.8) and sheared by four passages through a pipette. Aliquots were removed for protein determination, using the BCA protein assay (Pierce). After 10% β-mercaptoethanol and 0.05% bromophenol blue were added, lysates were boiled for 5 min and stored at −80° C. until immunoblotting was performed. Proteins in defrosted samples were separated by SDS-polyacrylamide gel electrophoresis on 12% polyacrylamide gels (15 μg protein/lane) and electrotransferred to 0.45 μm Hybond ECL nitrocellulose membranes (Amersham Life Sciences) using the wet transblot method in transfer buffer (0.025 M Tris, 0.192 M glycine, 2.6 mM SDS, and 20%[vol/vol] methanol; pH 8.8) at 100 volts for 1 hour. […] Immunoblots were rinsed again as above and detected via an enhanced chemiluminescence method (ECL Western blotting detection system, Amersham Life Science, Buckinghamshire, England). […]

CCN(CC)C(=S)SSC(=S)N(CC)CC [Disulfiram, tetraethylthiuram disulfide]
DNA binding of AP-1 (AP-1): inhibited | generation of reactive oxygen species (dichlorofluorescein fluorescence vs baseline) (M1619 cells; 1.25 μM disulfiram and 0.2 to 1.6 μM CuSO4): not increased | generation of reactive oxygen species (dichlorofluorescein fluorescence vs baseline) (M1619 cells; disulfiram 0.625 to 5 μM): not increased | cyclin A expression (cyclin A; disulfiram 5 μM alone): little effect | reduction of cyclin A expression (cyclin A; disulfiram 5 μM plus CuSO4 1.6 μM): over two-thirds | expression of p53 (p53): no consistent effect
